Calls of active or inactive are those of the source. No cut-off for these calls is given here.
What was measured:
[1] = Antiproliferative activity against human LoVo/DX cells assessed as reduction in cell number after 72 hrs by cell counter analysis; format: functional, cell-based
[2] = Antiproliferative activity against human H460 cells assessed as reduction in cell number after 72 hrs by cell counter analysis; format: functional, cell-based; conditions: NCI-H460, 72 h
IGROV-1 [3] = test: Induction of apoptosis in human IGROV1 cells at 0.3 uM after 72 hrs by TUNEL assay (reference value: 3%); format: functional
[4] = Cell cycle arrest in human IGROV1 cells assessed as accumulation at G1 phase at 0.3 to 1 uM after 72 hrs by propidium iodide staining based flow cytometry; format: functional; conditions: IGROV-1
IGROV-1 [5] = test: Induction of apoptosis in human IGROV1 cells at 1 uM after 72 hrs by TUNEL assay (reference value: 3%); format: functional
LoVo = test: Antiproliferative activity against human LoVo cells assessed as reduction in cell number after 72 hrs by cell counter analysis; format: functional, cell-based
[6] = Antiproliferative activity human HCT116 cells assessed as reduction in cell number after 72 hrs by cell counter analysis; format: functional, cell-based; conditions: HCT-116, 72 h
animal or person = format: functional; conditions: Homo sapiens, HCT-116, po, read-out: TGI
Description: Antitumor activity against human HCT116 cells xenografted in athymic Swiss nude mouse assessed as tumor growth inhibition at 175 mg/kg, po for 5 days a week for 4 weeks relative to control

HT-29 [7] = test: Antiproliferative activity against mitoxantrone resistant human HT-29 cells assessed as reduction in cell number after 72 hrs by cell counter analysis; format: functional, cell-based; conditions: HT-29, 72 h
HT-29 [8] = test: Antiproliferative activity against human HT-29 cells assessed as reduction in cell number after 72 hrs by cell counter analysis; format: functional, cell-based; conditions: HT-29, 72 h
[9] = Antiproliferative activity against human IGROV1 cells assessed as reduction in cell number after 72 hrs by cell counter analysis; format: functional, cell-based; conditions: IGROV-1, 72 h
Histone deacetylase [10] = test: Inhibition of HDAC in human HeLa nuclear extract using BOC-Ac-Lys-AMC as substrate incubated for 90 mins by fluorescence assay; format: protein assay
Histone deacetylase [11] = test: Inhibition of HDAC in human HeLa cells using BOC-Ac-Lys-AMC as substrate incubated for 4 hrs by fluorescence assay; format: cell-based
Histone deacetylase 2 = Histone deacetylase 2 (Homo sapiens, UniProt Q92769); test: Inhibition of human recombinant HDAC2 using Fluor de Lys Green as substrate incubated for 30 mins by fluorescence assay
Sequence of Histone deacetylase 2 (Q92769 whole entry): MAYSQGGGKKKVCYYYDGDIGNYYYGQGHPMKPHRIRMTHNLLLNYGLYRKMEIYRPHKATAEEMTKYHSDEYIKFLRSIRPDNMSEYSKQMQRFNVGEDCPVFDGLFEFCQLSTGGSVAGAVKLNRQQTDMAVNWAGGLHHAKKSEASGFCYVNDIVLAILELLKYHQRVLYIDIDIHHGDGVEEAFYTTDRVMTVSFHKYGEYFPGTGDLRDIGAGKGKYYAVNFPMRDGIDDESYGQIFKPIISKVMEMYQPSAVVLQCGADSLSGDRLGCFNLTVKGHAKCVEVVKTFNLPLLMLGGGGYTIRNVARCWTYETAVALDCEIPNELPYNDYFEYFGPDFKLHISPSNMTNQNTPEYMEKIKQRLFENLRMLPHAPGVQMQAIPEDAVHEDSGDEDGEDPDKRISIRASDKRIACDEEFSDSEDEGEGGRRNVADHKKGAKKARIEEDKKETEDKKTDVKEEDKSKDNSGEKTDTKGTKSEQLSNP

IC50 (Histone deacetylase [10])	IC50 (Histone deacetylase [11])	IC50 (Histone deacetylase 2)	SMILES	IC50 [1]	IC50 [2]	Activity (IGROV-1 [3])	Activity [4]	Activity (IGROV-1 [5])	IC50 (LoVo)	IC50 [6]	inhibition in vivo at 175 mg/kg (animal or person)	IC50 (HT-29 [7])	IC50 (HT-29 [8])	IC50 [9]
			Cc1[nH]c2ccccc2c1/C=C/c1ccccc1-c1ccc(/C=C/C(=O)NO)cc1	4.62 µM	1.41 µM	34%	Active	79%	6.57 µM	0.27 µM	68%	2.44 µM	1.37 µM	0.35 µM
2.6 µM	2.5 µM	11.8 µM	CC(C)=C(c1ccccc1)c1ccc(/C=C/C(=O)NO)cc1		5.5 µM				2.79 µM	2 µM			4.12 µM	2.5 µM
			O=C(CCCCCCC(=O)Nc1ccccc1)NO [VORINOSTAT]							0.31 µM				2.2 µM
			COc1ccc(-c2ccc(/C=C/C(=O)NO)cc2)cc1		3.7 µM					0.26 µM		1.73 µM	1.58 µM	0.75 µM

— ChEMBL document CHEMBL3792283, “Biphenyl-4-yl-acrylohydroxamic acids: Identification of a novel indolyl-substituted HDAC inhibitor with antitumor activity” (Eur J Med Chem, 2016)
